# Results: patent EP0045161A1, “Amides of 4-oxo-5-amidohexanoic acid derivatives” (IMPERIAL CHEMICAL INDUSTRIES PLC, priority 1980, dated 1982)
# Biological target: angiotensin converting enzyme (Homo sapiens, UniProt P12821)
# Assay: inhibition of angiotensin converting enzyme (cleavage of angiotensin I or a related synthetic peptide by ACE)
# Type: biochemical
# Text: ACE is the enzyme which converts angiotensin I to angiotensin II.
# angiotensin converting enzyme, sequence (P12821 30-1306, species assumed): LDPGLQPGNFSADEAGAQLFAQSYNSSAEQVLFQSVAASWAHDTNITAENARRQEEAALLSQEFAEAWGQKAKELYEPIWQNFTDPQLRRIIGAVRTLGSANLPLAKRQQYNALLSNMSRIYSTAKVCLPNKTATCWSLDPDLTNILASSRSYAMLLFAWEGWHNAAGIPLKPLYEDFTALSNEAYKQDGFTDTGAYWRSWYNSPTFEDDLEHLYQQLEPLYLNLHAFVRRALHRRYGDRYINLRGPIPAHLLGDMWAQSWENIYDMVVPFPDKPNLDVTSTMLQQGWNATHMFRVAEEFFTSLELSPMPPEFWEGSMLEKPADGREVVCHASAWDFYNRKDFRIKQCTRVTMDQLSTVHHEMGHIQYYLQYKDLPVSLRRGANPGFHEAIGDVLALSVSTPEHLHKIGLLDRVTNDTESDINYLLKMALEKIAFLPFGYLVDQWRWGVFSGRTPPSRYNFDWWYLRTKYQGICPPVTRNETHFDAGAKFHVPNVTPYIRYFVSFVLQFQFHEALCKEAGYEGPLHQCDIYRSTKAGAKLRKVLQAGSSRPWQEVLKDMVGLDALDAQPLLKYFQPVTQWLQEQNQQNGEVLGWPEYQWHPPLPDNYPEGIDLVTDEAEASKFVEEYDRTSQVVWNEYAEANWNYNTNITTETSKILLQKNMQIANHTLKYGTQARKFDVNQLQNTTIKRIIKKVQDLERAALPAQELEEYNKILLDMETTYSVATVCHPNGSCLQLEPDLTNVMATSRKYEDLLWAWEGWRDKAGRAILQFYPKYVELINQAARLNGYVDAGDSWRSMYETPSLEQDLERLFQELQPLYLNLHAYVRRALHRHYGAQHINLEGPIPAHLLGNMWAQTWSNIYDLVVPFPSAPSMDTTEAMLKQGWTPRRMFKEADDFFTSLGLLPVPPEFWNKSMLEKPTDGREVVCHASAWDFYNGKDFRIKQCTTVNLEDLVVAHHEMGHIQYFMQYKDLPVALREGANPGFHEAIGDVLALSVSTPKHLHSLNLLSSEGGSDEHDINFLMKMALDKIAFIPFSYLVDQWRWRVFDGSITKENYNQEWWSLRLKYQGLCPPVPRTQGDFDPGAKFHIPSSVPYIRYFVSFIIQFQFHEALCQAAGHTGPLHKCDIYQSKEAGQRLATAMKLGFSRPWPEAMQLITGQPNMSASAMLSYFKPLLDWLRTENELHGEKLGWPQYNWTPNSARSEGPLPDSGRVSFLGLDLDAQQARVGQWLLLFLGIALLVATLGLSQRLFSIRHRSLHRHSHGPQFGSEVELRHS
"times more active as an inhibitor of angiotensin converting enzyme (relative to the more polar isomer (Compound No. 6B), isomers at the 2-carbon atom of the hexanoyl chain) [times]","times more active as an inhibitor or angiotensin converting enzyme (relative to the less polar isomer (Compound No. 6D), isomers at the 5-carbon atom of the hexanoyl chain) [times]",SMILES
10,,"CC(CC(=O)C(Cc1ccccc1)NC(=O)c1ccccc1)C(=O)N1CCC[C@H]1C(=O)OC(C)(C)C (single isomer, unassigned) [Compound No. 6A]"
,100,"CC(CC(=O)C(Cc1ccccc1)NC(=O)c1ccccc1)C(=O)N1CCC[C@H]1C(=O)OC(C)(C)C (single isomer, unassigned) [Compound No. 6C]"
